# Measured values as given in US4859611A (priority 1986, dated 1989).
# How the values were obtained:
# many animal species = settings: in vivo; cited from earlier work
# [1] = test system: IgM antibody affinity matrix; format: binding, mouse
structure (smiles),measurement,setting,value
"COc1cc2c(c3oc(=O)c4c(c13)CCC4=O)[C@@H]1C=CO[C@@H]1O2 [AFB1, aflatoxin B1]","toxic, mutagenic and carcinogenic effect",many animal species,"toxic, mutagenic and carcinogenic"
same,capacity of affinity matrix to bind AFB1,[1],1.0 to 1.3 µg
